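How tested: cells in 96-well plates exposed to compound for 48 hours at five concentrations. Here, GI50 denotes the concentration required for 50% inhibition of growth.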 Calls of active or inactive are those of the source. Cut-off read from the data, not from the text of the source: active = GI50 up to about 1.1 µM and inactive = higher.
Experiments:
Test in all cases: DTP human tumour cell line panel, 48 h
SF-295 = system: SF-295
CAKI-1 = system: CAKI-1
Malme-3M = system: Malme-3M
SK-MEL-28 = system: SK-MEL-28
UACC-257 = system: UACC-257
NCI/ADR-RES = system: NCI/ADR-RES
A498 = system: A498
U-251 = system: U-251
SNB-75 = system: SNB-75
OVCAR-4 = system: OVCAR-4
SR = system: SR
DU-145 = system: DU-145
NCI-H23 = system: NCI-H23
HT-29 = system: HT-29
HCT-15 = system: HCT-15
ACHN = system: ACHN
UO-31 = system: UO-31
SW-620 = system: SW-620
MDA-MB-435 = system: MDA-MB-435
MDA-N = system: MDA-N

Row | Compound | GI50 (SF-295) | GI50 (CAKI-1) | GI50 (Malme-3M) | GI50 (SK-MEL-28) | GI50 (UACC-257) | GI50 (NCI/ADR-RES) | GI50 (A498) | GI50 (U-251) | GI50 (SNB-75) | GI50 (OVCAR-4) | GI50 (SR) | GI50 (DU-145) | GI50 (NCI-H23) | GI50 (HT-29) | GI50 (HCT-15) [µM] | GI50 (ACHN) | GI50 (UO-31) | GI50 (SW-620) | GI50 (MDA-MB-435) | GI50 (MDA-N)
1 | CSC1=C(C(=O)N(COCC[Si](C)(C)C)c2ccccc2Br)CCC(C(C)(C)C)C1 (stereo unspecified) | 9.64 µM (inactive) | 1.83 µM (inactive) | 16.6 µM (inactive) | 25.8 µM (inactive) | 9.77 µM (inactive) | 13.7 µM (inactive) | 28.1 µM (inactive) | 11.6 µM (inactive) | 20.6 µM (inactive) | 10.5 µM (inactive) | 3.42 µM (inactive) | 22.4 µM (inactive) | 13.8 µM (inactive) | 15 µM (inactive) | 11.7 | 16.4 µM (inactive) | 12.6 µM (inactive) | 13.8 µM (inactive) | 17.9 µM (inactive) | –
2 | C=C(CN(C)C)C1(c2ccccc2)CC2(CCCC2)C(=O)O1 (stereo unspecified) | > 100 µM (inactive) | > 100 µM (inactive) | 14.7 µM (inactive) | > 100 µM (inactive) | 49.2 µM (inactive) | – | > 100 µM (inactive) | > 100 µM (inactive) | > 100 µM (inactive) | > 100 µM (inactive) | – | > 100 µM (inactive) | 27.2 µM (inactive) | 24.2 µM (inactive) | 76.9 | 92.5 µM (inactive) | 23.9 µM (inactive) | > 100 µM (inactive) | 56.4 µM (inactive) | 44.8 µM (inactive)
3 | CC(=O)Nc1ccc(/C=c2\sc3nnc(-c4cccnc4)n3c2=O)cc1 | 36.4 µM (inactive) | 17.9 µM (inactive) | 19.1 µM (inactive) | 17 µM (inactive) | 21.8 µM (inactive) | – | 75.2 µM (inactive) | 17.8 µM (inactive) | 22.2 µM (inactive) | 14.6 µM (inactive) | 17.3 µM (inactive) | – | 15.8 µM (inactive) | 18.5 µM (inactive) | 17.6 | 14 µM (inactive) | 12 µM (inactive) | 17.8 µM (inactive) | – | –
4 | CCCC1=NC(C(F)(F)F)(C(F)(F)F)N=C(N2CCOCC2)O1 | > 100 µM (inactive) | 63.4 µM (inactive) | > 100 µM (inactive) | > 100 µM (inactive) | > 100 µM (inactive) | > 100 µM (inactive) | – | > 100 µM (inactive) | > 100 µM (inactive) | 80.2 µM (inactive) | > 100 µM (inactive) | > 100 µM (inactive) | > 100 µM (inactive) | > 100 µM (inactive) | > 100 | – | > 100 µM (inactive) | > 100 µM (inactive) | > 100 µM (inactive) | –
5 | BrCC[N+]12CCCN1CCC2 | > 72.9 µM (inactive) | 1.03 µM (active) | 2.32 µM (inactive) | 10.7 µM (inactive) | 18.7 µM (inactive) | – | 45.9 µM (inactive) | 16.5 µM (inactive) | 16.7 µM (inactive) | 4.23 µM (inactive) | 1.68 µM (inactive) | 45.3 µM (inactive) | 18.5 µM (inactive) | 10.8 µM (inactive) | 12.3 | 7.26 µM (inactive) | 13.8 µM (inactive) | 2.28 µM (inactive) | – | 16.1 µM (inactive)
6 | O=C(O)CCC(=O)N1C/C(=C\c2ccccc2)C(=O)/C(=C/c2ccccc2)C1 | 2.44 µM (inactive) | 4.71 µM (inactive) | 2.33 µM (inactive) | 1.97 µM (inactive) | 2.29 µM (inactive) | – | 13.9 µM (inactive) | 1.78 µM (inactive) | 6.82 µM (inactive) | 2.3 µM (inactive) | 0.59 µM (active) | – | 3.64 µM (inactive) | 2.23 µM (inactive) | 2.06 | 2.07 µM (inactive) | 18.6 µM (inactive) | 1.58 µM (inactive) | – | –
7 | O=C(/C=C/c1c(O)ccc2ccccc12)c1ccccc1 | > 100 µM (inactive) | > 100 µM (inactive) | > 100 µM (inactive) | > 100 µM (inactive) | > 100 µM (inactive) | – | > 100 µM (inactive) | > 100 µM (inactive) | 0.413 µM (active) | > 100 µM (inactive) | > 100 µM (inactive) | – | 95.7 µM (inactive) | 15.7 µM (inactive) | > 100 | > 100 µM (inactive) | > 100 µM (inactive) | 22.5 µM (inactive) | – | –
8 | Cn1c(-c2cccc(N)c2)[n+](C)c2ccccc21 | > 100 µM (inactive) | > 100 µM (inactive) | > 100 µM (inactive) | > 100 µM (inactive) | > 100 µM (inactive) | > 100 µM (inactive) | 22.4 µM (inactive) | > 10 µM (inactive) | > 100 µM (inactive) | > 100 µM (inactive) | > 100 µM (inactive) | > 100 µM (inactive) | 48.3 µM (inactive) | > 100 µM (inactive) | > 100 | > 100 µM (inactive) | > 100 µM (inactive) | > 100 µM (inactive) | > 100 µM (inactive) | –
9 | Cc1cc2nc3c(C#N)c4c(c(Cl)n3c2cc1C)CCC4 | > 100 µM (inactive) | 18.5 µM (inactive) | 52.8 µM (inactive) | 29.2 µM (inactive) | 36.7 µM (inactive) | 18.3 µM (inactive) | > 100 µM (inactive) | 15.1 µM (inactive) | > 100 µM (inactive) | 43 µM (inactive) | – | – | 24.1 µM (inactive) | – | 17.6 | 24.6 µM (inactive) | – | 19.6 µM (inactive) | 19.3 µM (inactive) | –
10 | COc1ccc(C2=Nc3ccccc3NC(=O)C2)cc1 | 23.1 µM (inactive) | > 100 µM (inactive) | 92 µM (inactive) | > 100 µM (inactive) | > 100 µM (inactive) | – | 45.2 µM (inactive) | 28 µM (inactive) | 23.8 µM (inactive) | > 100 µM (inactive) | > 100 µM (inactive) | – | 26.9 µM (inactive) | > 100 µM (inactive) | 51.9 | 41.2 µM (inactive) | 34.4 µM (inactive) | 16.7 µM (inactive) | – | –
11 | CN(C)c1nc(N)nc(CS)n1 | 52.4 µM (inactive) | > 100 µM (inactive) | – | > 100 µM (inactive) | > 100 µM (inactive) | > 100 µM (inactive) | > 100 µM (inactive) | 89.5 µM (inactive) | > 100 µM (inactive) | 80.7 µM (inactive) | 37.2 µM (inactive) | > 100 µM (inactive) | > 100 µM (inactive) | > 100 µM (inactive) | 56.4 | > 100 µM (inactive) | > 100 µM (inactive) | > 100 µM (inactive) | > 100 µM (inactive) | –
12 | Cc1cc(S(=O)(=O)Nc2nc(N)nc(N3CCOCC3)n2)c(SCC(=O)O)cc1Cl | > 10 µM (inactive) | > 10 µM (inactive) | > 10 µM (inactive) | > 10 µM (inactive) | > 10 µM (inactive) | > 10 µM (inactive) | > 10 µM (inactive) | > 10 µM (inactive) | > 10 µM (inactive) | > 10 µM (inactive) | > 10 µM (inactive) | > 10 µM (inactive) | > 10 µM (inactive) | > 10 µM (inactive) | > 10 | > 10 µM (inactive) | > 10 µM (inactive) | > 10 µM (inactive) | – | > 10 µM (inactive)
13 | O=C(CSCC(=O)N/N=C\c1cccc([N+](=O)[O-])c1)N/N=C\c1cccc([N+](=O)[O-])c1 | 11.5 µM (inactive) | 23.3 µM (inactive) | 21 µM (inactive) | > 100 µM (inactive) | > 100 µM (inactive) | 19.2 µM (inactive) | 41.1 µM (inactive) | 13.5 µM (inactive) | 37.1 µM (inactive) | > 100 µM (inactive) | 69 µM (inactive) | 54.1 µM (inactive) | 14.2 µM (inactive) | > 100 µM (inactive) | 25.5 | 14 µM (inactive) | 34.4 µM (inactive) | > 100 µM (inactive) | > 100 µM (inactive) | –
14 | COc1cc(C2NCCC(c3ccccc3)(c3ccccc3)N2)cc(OC)c1OC (stereo unspecified) | 7.1 µM (inactive) | – | 19.1 µM (inactive) | 17 µM (inactive) | 18.2 µM (inactive) | > 100 µM (inactive) | 18.7 µM (inactive) | 32.9 µM (inactive) | 41.7 µM (inactive) | 81.1 µM (inactive) | 26.4 µM (inactive) | 97.3 µM (inactive) | 23.4 µM (inactive) | 4.66 µM (inactive) | 38.5 | 61.2 µM (inactive) | 12.2 µM (inactive) | 19 µM (inactive) | 18.5 µM (inactive) | –
15 | CCCCCCC1CC(=O)C1(Cl)Cl (stereo unspecified) | 33.9 µM (inactive) | 18.9 µM (inactive) | 16.1 µM (inactive) | > 10 µM (inactive) | 18.7 µM (inactive) | 32.2 µM (inactive) | – | 38.3 µM (inactive) | 16.6 µM (inactive) | 29.1 µM (inactive) | > 10 µM (inactive) | 26.9 µM (inactive) | 25.2 µM (inactive) | 26.7 µM (inactive) | 31 | 18.3 µM (inactive) | 19.4 µM (inactive) | 19.6 µM (inactive) | – | 25.9 µM (inactive)
16 | CCOC(=O)/C1=C(\C)N(c2ccc(C)cc2)C(=O)c2ccccc2C(=O)c2c(OC(C)=O)ccc(OC(C)=O)c21 | 14.5 µM (inactive) | 13.3 µM (inactive) | 28.1 µM (inactive) | < 0.01 µM (active) | 21.8 µM (inactive) | 19.2 µM (inactive) | 67.1 µM (inactive) | 24.9 µM (inactive) | 25.8 µM (inactive) | 12.8 µM (inactive) | 15.8 µM (inactive) | 31.8 µM (inactive) | 19.9 µM (inactive) | 14.6 µM (inactive) | 16.4 | 16.8 µM (inactive) | 38.5 µM (inactive) | 34.7 µM (inactive) | 15.3 µM (inactive) | –

Reference: ChEMBL document CHEMBL1201862, “PubChem BioAssay data set” (2004)
